Laboratory results reported in ChEMBL document CHEMBL1151396, “Synthesis of naphthoquinoles as potential antitumor agents related to jacaranone” (1982).
Values after ≈ are worked out from the molar mass of the structure shown.

tested on: P388; test: In vivo cytotoxicity against mouse P388 cells at 2 mg/kg relative to control; format: functional; details: not given

Structure (SMILES)	T/C [%]
COC(=O)CC1(O)C=CC(=O)C=C1 [JACARANONE]	165

tested on: KB; test: Cytotoxicity against human KB cells; format: functional; details: read-out: ED50 (the source's name)

Structure (SMILES)	EC50 [µg/mL]
CCOC(=O)CC1(O)C=CC(=O)C=C1	3.3 (≈ 16.8 µM)
COC(=O)CC1(O)C=CC(=O)c2ccccc21 (stereo unspecified)	20 (≈ 86.1 µM)
COC(=O)CC1(O)C=C(OC)C(=O)c2ccccc21 (stereo unspecified)	25 (≈ 95.3 µM)
COC(=O)CC1(O)C=C(C)C(=O)c2ccccc21 (stereo unspecified)	100 (≈ 406 µM)
COC(=O)CC1(O)C=CC(=O)C=C1 [JACARANONE]	2.1 (≈ 11.5 µM)
